Experimental data taken from patent publication US4708956A, “3-position halogenated cephalosporin analogs and pharmaceutical compositions” (Kyowa Hakko Kogyo Co., Ltd., priority 1986, dated 1987).
≈ marks a conversion by molar mass, not a printed value. Like-named read-outs stand apart in the source and are kept apart here.

What was measured:
[1] = system: Klebsiella pneumoniae Y-60; assay: Heart Infusion Agar Dilution Method, minimum inhibitory concentration; format: cell-based
Protocol: (§1) The activity is determined by the Heart Infusion Agar Dilution Method (pH 7.2).

[2] = system: Staphylococcus epidermidis; assay: as above; format: cell-based; settings: pH 7.2
Protocol: as §1

[3] = system: Proteus morganii KY4298; assay: as above; format: cell-based; settings: Morganella morganii
Protocol: as §1

[4] = system: Escherichia coli NIHJC-2; assay: as above; format: cell-based
Protocol: as §1

[5] = system: Proteus rettgeri KY4289; assay: as above; format: cell-based; settings: Providencia rettgeri
Protocol: as §1

[6] = system: Proteus vulgaris 6897; assay: as above; format: cell-based; settings: pH 7.2
Protocol: as §1

[7] = system: Pseudomonas putida F264; assay: as above; format: cell-based
Protocol: as §1

[8] = system: Escherichia coli Juhl; assay: as above; format: cell-based
Protocol: as §1

[9] = system: Proteus mirabilis 1287; assay: as above; format: cell-based; settings: pH 7.2
Protocol: as §1

[10] = system: Klebsiella pneumoniae 8045; assay: as above; format: cell-based; settings: pH 7.2
Protocol: as §1

[11] = system: Serratia marcescens T-55; assay: as above; format: cell-based
Protocol: as §1

[12] = system: Staphylococcus aureus 209-p; assay: as above; format: cell-based
Protocol: as §1

[13] = system: Staphylococcus aureus Smith; assay: as above; format: cell-based; settings: pH 7.2
Protocol: as §1

[14] = system: Gram-positive and Gram-negative bacteria; settings: J. Am. Chem. Soc., 96, 7584 (1974); J. Med. Chem., 20, 551 (1977); cited from earlier work
[15] = system: Gram-positive and Gram-negative bacteria; assay: antibacterial activity (general statements); format: cell-based; settings: general or comparative statement
[16] = Y60, Klebsiella pneumoniae Y-60, Heart Infusion Agar Dilution Method, pH 7.2, read-out: Minimum Inhibitory Concentration
[17] = Proteus morganii KY4298, Heart Infusion Agar Dilution Method, pH 7.2, read-out: Minimum Inhibitory Concentration
[18] = NIHJC2, Escherichia coli NIHJC-2, Heart Infusion Agar Dilution Method, pH 7.2, read-out: Minimum Inhibitory Concentration
[19] = Proteus rettgeri KY4289, Heart Infusion Agar Dilution Method, pH 7.2, read-out: Minimum Inhibitory Concentration
[20] = Pseudomonas putida F264, Heart Infusion Agar Dilution Method, pH 7.2, read-out: Minimum Inhibitory Concentration
[21] = Escherichia coli Juhl, Heart Infusion Agar Dilution Method, pH 7.2, read-out: Minimum Inhibitory Concentration
[22] = T55, Serratia marcescens T-55, Heart Infusion Agar Dilution Method, pH 7.2, read-out: Minimum Inhibitory Concentration
[23] = Staphylococcus aureus 209-p, Heart Infusion Agar Dilution Method, pH 7.2, read-out: Minimum Inhibitory Concentration

| Compound | MIC [1, 16] [µg/mL] | MIC [2] [µg/mL] | MIC [3, 17] [µg/mL] | MIC [4, 18] [µg/mL] | MIC [5, 19] [µg/mL] | MIC [6] [µg/mL] | MIC [7, 20] [µg/mL] | MIC [8, 21] [µg/mL] | MIC [9] [µg/mL] | MIC [10] [µg/mL] | MIC [11, 22] [µg/mL] | MIC [12, 23] [µg/mL] | MIC [13] [µg/mL] | also measured |
| --- | --- | --- | --- | --- | --- | --- | --- | --- | --- | --- | --- | --- | --- | --- |
| CC(=O)OCC1=C(C(=O)O)N2C(=O)C(NC(=O)Cc3cccs3)C2CC1 (racemic) [(i)-1-carbacephalotin] |  |  |  |  |  |  |  |  |  |  |  |  |  | antibacterial activity, in words (literature) [14]: having antibacterial activity |
| N[C@@H](C(=O)N[C@@H]1C(=O)N2C(C(=O)O)=C(Cl)CC[C@H]12)c1ccccc1 [a, (6R, 7S) 7-(R)-phenylglycinamido-3-chloro-1-azabicyclo[4,2,0]oct-2-en-8-on-2-carboxylic acid] |  |  | > 100 |  | 100 (≈ 286 µM) | 100 (≈ 286 µM) | 100 (≈ 286 µM) |  |  |  |  |  |  | antibacterial (antimicrobial) activity, in words [15]: greater antimicrobial activity |
| CCN1CCN(C(=O)N[C@@H](C(=O)N[C@@H]2C(=O)N3C(C(=O)O)=C(Cl)CC[C@H]23)c2ccccc2)C(=O)C1=O [b, (6R, 7S) 7-[(R)-2-phenyl-2-(4-ethyl-2,3-dioxopiperadinylcarbonylamino)-acetamido]-3-chloro-1-azabicyclo[4,2,0]oct-2-en-8-on-2-carboxylic acid] | 12.5 (≈ 24.1 µM) | 1.56 (≈ 3.01 µM) | 3.12 (≈ 6.02 µM) | 3.12 (≈ 6.02 µM) | 3.12 (≈ 6.02 µM) | ≤ 0.05 | 25 (≈ 48.3 µM) | 3.12 (≈ 6.02 µM) | 1.56 (≈ 3.01 µM) | 0.1 (≈ 0.193 µM) | 3.12 (≈ 6.02 µM) | 0.4 (≈ 0.772 µM) | 1.56 (≈ 3.01 µM) |  |
| CC1=C(C(=O)O)N2C(=O)[C@@H](NC(=O)[C@H](N)c3ccccc3)[C@H]2SC1 [f, Cephalexin, reference compound] |  |  |  |  |  |  |  |  |  |  |  |  |  | MIC ([1]; Klebsiella pneumoniae, Y60, pH 7.2, read-out: Minimum Inhibitory Concentration): 50 µg/mL (≈ 144 µM); MIC ([3]; KY4298, pH 7.2, read-out: Minimum Inhibitory Concentration): > 100 µg/mL; MIC ([4]; Escherichia coli, NIHJC2, pH 7.2, read-out: Minimum Inhibitory Concentration): 12.5 µg/mL (≈ 36 µM); MIC ([5]; KY4289, pH 7.2, read-out: Minimum Inhibitory Concentration): > 100 µg/mL; MIC ([7]; Pseudomonas putida, F264, pH 7.2, read-out: Minimum Inhibitory Concentration): > 100 µg/mL; MIC ([8]; Escherichia coli, pH 7.2, read-out: Minimum Inhibitory Concentration): 12.5 µg/mL (≈ 36 µM); MIC ([11]; Serratia marcescens, T55, pH 7.2, read-out: Minimum Inhibitory Concentration): 50 µg/mL (≈ 144 µM); MIC ([12]; Staphylococcus aureus, 209P, pH 7.2, read-out: Minimum Inhibitory Concentration): 0.2 µg/mL (≈ 0.576 µM) |

More lines, main results first:

| MIC [1, 16] [µg/mL] | MIC [2] [µg/mL] | MIC [3, 17] [µg/mL] | MIC [4, 18] [µg/mL] | MIC [5, 19] [µg/mL] | MIC [6] [µg/mL] | MIC [7, 20] [µg/mL] | MIC [8, 21] [µg/mL] | MIC [9] [µg/mL] | MIC [10] [µg/mL] | MIC [11, 22] [µg/mL] | MIC [12, 23] [µg/mL] | MIC [13] [µg/mL] | Compound | also measured |
| --- | --- | --- | --- | --- | --- | --- | --- | --- | --- | --- | --- | --- | --- | --- |
| 0.78 (≈ 1.95 µM) | 50 (≈ 125 µM) | 0.4 (≈ 1 µM) | 0.78 (≈ 1.95 µM) | 0.1 (≈ 0.25 µM) | 0.4 (≈ 1 µM) | 3.12 (≈ 7.8 µM) | 0.4 (≈ 1 µM) | 0.1 (≈ 0.25 µM) | ≤ 0.05 | 1.56 (≈ 3.9 µM) | 50 (≈ 125 µM) | 50 (≈ 125 µM) | CO/N=C(\C(=O)N[C@@H]1C(=O)N2C(C(=O)O)=C(Cl)CC[C@H]12)c1csc(N)n1 (relative stereo) [d, (±)-cis-7-[2-(2-aminothiazole-4-yl)-2-syn-methoxyiminoacetamido]-3-chloro-1-azabicyclo[4,2,0]oct-2en-8-on-2-carboxylic acid] |  |
| 50 (≈ 136 µM) | 25 (≈ 68 µM) | > 100 | 50 (≈ 136 µM) | 25 (≈ 68 µM) | 25 (≈ 68 µM) | > 100 | 50 (≈ 136 µM) | 12.5 (≈ 34 µM) | 12.5 (≈ 34 µM) | > 100 | 6.25 (≈ 17 µM) | 12.5 (≈ 34 µM) | CO/N=C(\C(=O)N[C@@H]1C(=O)N2C(C(=O)O)=C(Cl)CC[C@H]12)c1ccco1 (relative stereo) [c, cis-7-[2-(2-furyl)-2-syn-methoxyiminoacetamido]-3-chloro-1-azabicyclo[4,2,0]oct-2-en-8-on-2-carboxylic acid] |  |
| 12.5 (≈ 34.2 µM) | 1.56 (≈ 4.26 µM) | > 100 | 1.56 (≈ 4.26 µM) | 100 (≈ 273 µM) | 100 (≈ 273 µM) | 100 (≈ 273 µM) | 1.56 (≈ 4.26 µM) | 3.12 (≈ 8.53 µM) | 0.78 (≈ 2.13 µM) | 6.25 (≈ 17.1 µM) | 0.4 (≈ 1.09 µM) | 1.56 (≈ 4.26 µM) | N[C@@H](C(=O)N[C@@H]1C(=O)N2C(C(=O)O)=C(Cl)CC[C@H]12)c1ccc(O)cc1 [e, (6R, 7S) 7-(R)-p-hydroxyphenyl-glycinamido-3-chloro-1-azabicyclo[4,2,0]oct-2-en-8-on-2-carboxylic acid] |  |
